Measured values taken from ChEMBL document CHEMBL1909046, “DrugMatrix in vitro pharmacology data”.

Assays:
Cytochrome P450 1A2 = target: T1, Cytochrome P450 1A2 (Homo sapiens, UniProt P05177); details: bti-tn-5b1-4; also: in other assays of this panel Not Active means under 50% inhibition at 10 µM
T1 sequence (P05177 whole entry): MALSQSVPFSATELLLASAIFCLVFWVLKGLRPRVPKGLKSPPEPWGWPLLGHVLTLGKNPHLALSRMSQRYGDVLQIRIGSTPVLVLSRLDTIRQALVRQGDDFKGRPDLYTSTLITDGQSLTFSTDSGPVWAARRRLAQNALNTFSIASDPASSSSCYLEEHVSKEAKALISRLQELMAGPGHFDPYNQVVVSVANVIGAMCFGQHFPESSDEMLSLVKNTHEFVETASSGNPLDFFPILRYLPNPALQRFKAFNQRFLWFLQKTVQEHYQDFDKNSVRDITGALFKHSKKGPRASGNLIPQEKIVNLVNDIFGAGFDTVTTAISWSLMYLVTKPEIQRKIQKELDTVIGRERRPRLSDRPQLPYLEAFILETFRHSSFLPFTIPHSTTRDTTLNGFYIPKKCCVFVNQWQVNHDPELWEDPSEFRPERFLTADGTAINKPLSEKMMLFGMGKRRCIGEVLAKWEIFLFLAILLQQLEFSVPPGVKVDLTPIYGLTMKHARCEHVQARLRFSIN

[1] = DRUGMATRIX: Purinergic P2X radioligand binding (ligand: [3H] alpha, beta-Methylene-ATP); type: cell membranes, Oryctolagus cuniculus, New Zealand albino, Urinary bladder, Membrane; details: Not Active = under 50% inhibition at 10 µM
[2] = target: T2, Nitric oxide synthase, inducible (Mus musculus, UniProt P29477); design: species or system Escherichia coli;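 also: inhibition of iNOS enzyme activity measured with L-arginine as substrate; in other assays of this panel Not Active means under 50% inhibition at 10 µM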
T2 sequence (P29477 whole entry): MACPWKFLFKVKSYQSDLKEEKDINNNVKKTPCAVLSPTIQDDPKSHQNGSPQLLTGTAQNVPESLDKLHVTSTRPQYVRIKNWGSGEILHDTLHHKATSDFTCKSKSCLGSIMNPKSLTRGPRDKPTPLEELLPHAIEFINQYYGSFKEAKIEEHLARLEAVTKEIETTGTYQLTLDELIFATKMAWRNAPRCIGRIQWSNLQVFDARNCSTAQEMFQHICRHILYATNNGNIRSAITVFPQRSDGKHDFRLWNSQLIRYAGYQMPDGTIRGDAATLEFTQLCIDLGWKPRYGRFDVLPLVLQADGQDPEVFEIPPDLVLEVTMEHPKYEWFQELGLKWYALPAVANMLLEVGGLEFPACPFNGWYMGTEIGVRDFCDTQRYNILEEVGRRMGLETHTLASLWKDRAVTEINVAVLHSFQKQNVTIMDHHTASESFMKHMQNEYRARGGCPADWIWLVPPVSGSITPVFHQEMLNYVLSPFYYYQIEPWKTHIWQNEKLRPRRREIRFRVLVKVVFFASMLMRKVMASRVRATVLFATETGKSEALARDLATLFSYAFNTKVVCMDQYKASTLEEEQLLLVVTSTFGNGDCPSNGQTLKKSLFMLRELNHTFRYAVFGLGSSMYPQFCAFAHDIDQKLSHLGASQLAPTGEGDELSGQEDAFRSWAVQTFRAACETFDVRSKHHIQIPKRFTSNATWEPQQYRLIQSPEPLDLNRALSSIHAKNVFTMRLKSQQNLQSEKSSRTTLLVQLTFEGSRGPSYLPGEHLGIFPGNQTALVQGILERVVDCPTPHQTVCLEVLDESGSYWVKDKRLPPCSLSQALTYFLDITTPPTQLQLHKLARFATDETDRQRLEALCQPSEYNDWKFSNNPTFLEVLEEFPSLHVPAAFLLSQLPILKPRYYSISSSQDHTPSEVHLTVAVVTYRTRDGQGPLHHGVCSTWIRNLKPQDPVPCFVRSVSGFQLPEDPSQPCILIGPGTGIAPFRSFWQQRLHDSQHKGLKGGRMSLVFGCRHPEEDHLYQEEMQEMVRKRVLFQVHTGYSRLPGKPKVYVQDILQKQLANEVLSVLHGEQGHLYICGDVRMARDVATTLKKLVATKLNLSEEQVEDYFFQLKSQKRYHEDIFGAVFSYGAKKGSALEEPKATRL

[3] = target: T3, Polyunsaturated fatty acid lipoxygenase ALOX15 (Oryctolagus cuniculus, UniProt P12530); assay: biochemical; type: tissue-based, Reticulocytes;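 also: inhibition of 15-lipoxygenase enzyme activity measured with linoleic acid as the substrate; in other assays of this panel Not Active means under 50% inhibition at 10 µM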
T3 sequence (P12530 whole entry): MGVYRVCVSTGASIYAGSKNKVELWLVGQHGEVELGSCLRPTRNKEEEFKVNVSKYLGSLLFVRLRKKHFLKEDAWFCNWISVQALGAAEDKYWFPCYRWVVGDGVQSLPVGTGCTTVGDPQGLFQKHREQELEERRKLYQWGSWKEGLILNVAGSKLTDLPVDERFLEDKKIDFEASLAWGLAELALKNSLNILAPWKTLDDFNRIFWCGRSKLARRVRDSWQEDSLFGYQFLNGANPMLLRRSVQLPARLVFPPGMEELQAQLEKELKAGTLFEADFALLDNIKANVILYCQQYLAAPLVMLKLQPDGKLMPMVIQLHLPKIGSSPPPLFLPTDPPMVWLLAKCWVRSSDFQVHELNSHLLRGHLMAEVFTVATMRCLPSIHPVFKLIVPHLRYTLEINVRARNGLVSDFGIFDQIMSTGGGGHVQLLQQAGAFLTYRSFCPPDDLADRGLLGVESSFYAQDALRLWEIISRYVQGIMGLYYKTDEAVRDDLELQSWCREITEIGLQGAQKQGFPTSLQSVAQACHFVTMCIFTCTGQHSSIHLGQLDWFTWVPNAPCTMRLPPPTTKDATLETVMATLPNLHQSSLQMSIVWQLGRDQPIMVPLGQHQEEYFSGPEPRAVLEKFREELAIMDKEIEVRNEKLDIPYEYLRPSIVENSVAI

[4] = DRUGMATRIX: Tumor Necrosis Factor (TNF), Non-Selective radioligand binding (ligand: [125I] TNF-alpha); type: cell membranes, Membrane; details: u-937; Not Active = under 50% inhibition at 10 µM
[5] = target: Prostaglandin G/H synthase 1 (Homo sapiens, UniProt P23219); assay: biochemical; type: tissue-based, Platelet;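 also: inhibition of COX-1 enzyme activity, with arachidonic acid supplied as substrate; in other assays of this panel Not Active means under 50% inhibition at 10 µM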
B2 bradykinin receptor = target: T4, B2 bradykinin receptor (Homo sapiens, UniProt P30411); type: cell membranes, Membrane; details: chem-1; also: in other assays of this panel Not Active means under 50% inhibition at 10 µM
T4 sequence (P30411 whole entry): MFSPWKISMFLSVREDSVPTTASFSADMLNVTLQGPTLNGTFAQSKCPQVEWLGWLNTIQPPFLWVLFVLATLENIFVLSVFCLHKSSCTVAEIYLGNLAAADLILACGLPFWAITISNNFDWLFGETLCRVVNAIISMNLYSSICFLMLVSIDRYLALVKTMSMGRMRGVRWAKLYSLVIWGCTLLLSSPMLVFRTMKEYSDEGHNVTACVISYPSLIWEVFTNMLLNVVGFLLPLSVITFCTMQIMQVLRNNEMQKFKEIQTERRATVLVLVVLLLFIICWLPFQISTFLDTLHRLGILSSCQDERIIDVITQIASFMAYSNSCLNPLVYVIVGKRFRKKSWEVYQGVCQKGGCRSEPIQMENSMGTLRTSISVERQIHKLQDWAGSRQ

Chain of Prostaglandin G/H synthase 1 (P23219 whole entry): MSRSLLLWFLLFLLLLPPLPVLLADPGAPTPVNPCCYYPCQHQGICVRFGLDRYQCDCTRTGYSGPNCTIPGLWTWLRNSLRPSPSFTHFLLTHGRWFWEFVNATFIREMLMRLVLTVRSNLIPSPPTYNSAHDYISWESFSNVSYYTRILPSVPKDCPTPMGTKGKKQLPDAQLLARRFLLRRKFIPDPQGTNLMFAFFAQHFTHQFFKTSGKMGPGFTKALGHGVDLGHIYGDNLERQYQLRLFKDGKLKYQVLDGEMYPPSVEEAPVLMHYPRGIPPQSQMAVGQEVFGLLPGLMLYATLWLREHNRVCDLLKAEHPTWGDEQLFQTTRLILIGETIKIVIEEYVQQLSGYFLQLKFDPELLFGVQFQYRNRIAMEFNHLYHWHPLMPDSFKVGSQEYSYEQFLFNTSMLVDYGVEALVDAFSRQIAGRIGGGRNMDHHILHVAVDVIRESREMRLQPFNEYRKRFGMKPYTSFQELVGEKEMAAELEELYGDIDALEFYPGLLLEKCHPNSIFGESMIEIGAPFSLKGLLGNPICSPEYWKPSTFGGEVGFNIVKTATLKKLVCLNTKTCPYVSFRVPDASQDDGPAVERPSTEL

Compound | IC50 (Cytochrome P450 1A2) | Ki (Cytochrome P450 1A2) | IC50 [1] | Ki [1] | IC50 [2] | IC50 ([3]; reticulocytes) | IC50 [4] | Ki [4] | IC50 ([5]; platelet) | IC50 (B2 bradykinin receptor) | IC50 ([3]; read-out: IC50) [nM] | IC50 ([5]; read-out: IC50) [nM]
COc1ccccc1OCC(O)COC(N)=O (stereo unspecified) [METHOCARBAMOL] | Not Active | Not Active | Not Active | Not Active | Not Active | Not Active | Not Active | Not Active | Not Active | Not Active |  | 
CO[C@@]1(NC(=O)CSCC#N)C(=O)N2C(C(=O)O)=C(CSc3nnnn3C)CS[C@@H]21 [CEFMETAZOLE] | Not Active | Not Active | Not Active | Not Active | Not Active | Not Active | Not Active | Not Active | Not Active | Not Active |  | 
C=C(CC)C(=O)c1ccc(OCC(=O)O)c(Cl)c1Cl [ETHACRYNIC ACID] | Not Active | Not Active | Not Active | Not Active | Not Active | Not Active | Not Active | Not Active | Not Active | Not Active |  | 
Oc1ccccc1O [CATECHOL] | Not Active | Not Active | Not Active | Not Active | Not Active |  | Not Active | Not Active | Not Active | Not Active | 868 | 
CN1C(=O)CN=C(c2ccccc2)c2cc(Cl)ccc21 [DIAZEPAM] |  |  | Not Active | Not Active | Not Active | Not Active | Not Active | Not Active | Not Active | Not Active |  | 
NC[C@H]1O[C@H](O[C@H]2[C@H](O)[C@@H](O[C@H]3O[C@H](CO)[C@@H](O)[C@H](N)[C@H]3O)[C@H](N)C[C@@H]2N)[C@H](O)[C@@H](O)[C@@H]1O [KANAMYCIN] |  |  | Not Active | Not Active | Not Active | Not Active | Not Active | Not Active | Not Active | Not Active |  | 
COc1cc(CNC(=O)CCCC/C=C/C(C)C)ccc1O [CAPSAICIN] |  |  | Not Active | Not Active | Not Active | Not Active | Not Active | Not Active |  | Not Active |  | 1550
C[C@H](C(=O)O)c1cccc(C(=O)c2ccccc2)c1 [DEXKETOPROFEN] | Not Active | Not Active | Not Active | Not Active | Not Active | Not Active | Not Active | Not Active |  | Not Active |  | 
C[C@@H]1CC[C@H]2[C@@H](C)C(=O)O[C@@H]3O[C@@]4(C)CC[C@@H]1[C@]32OO4 [ARTEMISININ] |  |  | Not Active | Not Active | Not Active | Not Active | Not Active | Not Active | Not Active | Not Active |  | 
Cc1cn[nH]c1 [FOMEPIZOLE] |  |  | Not Active | Not Active | Not Active | Not Active | Not Active | Not Active | Not Active | Not Active |  | 
COc1ccccc1OCC(O)CO (stereo unspecified) [GUAIFENESIN] |  |  | Not Active | Not Active | Not Active | Not Active | Not Active | Not Active | Not Active | Not Active |  | 
N[C@@H](Cc1ccc(F)cc1)C(=O)O |  |  | Not Active | Not Active | Not Active | Not Active | Not Active | Not Active | Not Active | Not Active |  | 
CCOC(=O)C1=C(C)NC(C)=C(C(=O)OC)C1c1cccc(Cl)c1Cl (stereo unspecified) [FELODIPINE] |  |  | Not Active | Not Active | Not Active | Not Active | Not Active | Not Active | Not Active | Not Active |  | 
CCC[C@@H]1C[C@@H](C(=O)N[C@@H]([C@H]2O[C@H](SC)[C@H](O)[C@@H](O)[C@H]2O)[C@H](C)Cl)N(C)C1 [CLINDAMYCIN] |  |  | Not Active | Not Active | Not Active | Not Active | Not Active | Not Active | Not Active | Not Active |  | 
OCCN1CCN(CCCN2c3ccccc3Sc3ccc(Cl)cc32)CC1 [PERPHENAZINE] |  |  | Not Active | Not Active | Not Active | Not Active | Not Active | Not Active | Not Active | Not Active |  | 
C/C=C\c1ccc(O)c(OC)c1 [ISOEUGENOL] |  |  | Not Active | Not Active | Not Active | Not Active | Not Active | Not Active | Not Active | Not Active |  | 
CC(C(=O)O)c1ccc(-c2ccccc2)c(F)c1 (stereo unspecified) [FLURBIPROFEN] | Not Active | Not Active | Not Active | Not Active | Not Active | Not Active | Not Active | Not Active |  | Not Active |  | 
COc1ccc2cc(CCC(C)=O)ccc2c1 [NABUMETONE] |  |  | Not Active | Not Active | Not Active | Not Active | Not Active | Not Active | Not Active | Not Active |  | 
Cc1cnc(C(=O)NCCc2ccc(S(=O)(=O)NC(=O)NC3CCCCC3)cc2)cn1 [GLIPIZIDE] |  |  | Not Active | Not Active |  | Not Active | Not Active | Not Active | Not Active | Not Active |  | 
